Measurements published in patent US20230115335A1, “PYRAZOLE DERIVATIVES WITH ANTICANCER ACTIVITY” (BOARD OF REGENTS, THE UNIVERSITY OF TEXAS SYSTEM, priority 2021, published 2023).
Where two headings read alike, the source gives them in different places.

Tested on: CEM cell line
Assay: DNS cytotoxicity assay, CEM
Format: cell-based, human
Settings: read-out: CEM CC50
Description: […] […] After treatment, images were acquired and analyzed to determine percentages of live/dead cells and their cytotoxicity. […] The Hs-27 non-cancerous human foreskin fibroblast cell line was used for comparison purposes.

[1] = Homo sapiens, CCRF-CEM, Initial Screen, DNS assay

SMILES | CC50 [1] [µM] | further results
Cc1ccc2c(c1)/C(=N/NC(=O)c1n[nH]c3c1CCC3)C(=O)N2 [SSK-4] | – | CC50 (Initial Screen, DNS assay): 5.02 ± 0.78 µM
O=C(N/N=C1\C(=O)N(CN2CCOCC2)c2ccccc21)c1n[nH]c2c1CCC2 [SSK-5] | – | CC50 (Homo sapiens, CCRF-CEM): > 10 µM
O=C(N/N=C1\C(=O)N(CN2CCCCC2)c2ccccc21)c1n[nH]c2c1CCC2 [SSK-6] | – | CC50 (Homo sapiens, CCRF-CEM): > 10 µM
O=C(N/N=C/c1cn(-c2ccccc2)nc1-c1ccccc1)c1n[nH]c2c1CCC2 [SSK-7] | 8.15 ± 0.23 | –
Cc1ccc(-c2nn(-c3ccccc3)cc2/C=N/NC(=O)c2n[nH]c3c2CCC3)cc1 [SSK-8] | 3.6 ± 0.16 | –
O=C(N/N=C/c1cn(-c2ccccc2)nc1-c1ccc(Cl)cc1)c1n[nH]c2c1CCC2 [SSK-10] | 7.83 ± 0.13 | –
COc1ccc(-c2nn(-c3ccccc3)cc2/C=N/NC(=O)c2n[nH]c3c2CCC3)cc1 [SSK-11] | 3.14 ± 0.33 | –
O=C(N/N=C/c1cn(-c2ccccc2)nc1-c1cc2ccccc2oc1=O)c1n[nH]c2c1CCC2 [SSK-12] | 8.25 ± 0.26 | –
Cc1ccc(Cn2cc(COc3ccc(/C=N/NC(=O)c4n[nH]c5c4CCC5)cc3)nn2)cc1 [SSK-13] | > 10 | –
O=C(N/N=C/c1ccc(OCc2cn(Cc3ccccc3)nn2)cc1)c1n[nH]c2c1CCC2 [SSK-14] | > 10 | –
O=C(N/N=C/c1ccc(OCc2cn(Cc3ccc([N+](=O)[O-])cc3)nn2)cc1)c1n[nH]c2c1CCC2 [SSK-15] | > 10 | –
